Converted amounts (≈) assume the structure as drawn. “And” between values parts separate entries of the source, which are not always exact repeats. Equal entries are not always repeated. Where two headings read alike, the source gives them in different places. Marks after values point to notes of the source that are not given here.
Experiments:
[1] = mice; for Plasma concentration: 300 mg/kg single dose gavage
[2] = tested on: Acinetobacter baumannii multidrug-resistant clinical isolate; format: cell-based; conditions: tested at 20 μM, 24 h
[3] = tested on: M. tuberculosis H37Rv strain; test: microbe, parasite or virus in culture; format: cell-based, Mycobacterium tuberculosis; conditions: M. tuberculosis H37Rv, resazurin-based assay
Vero cells [4] = conditions: read-out: CC50 Vero; MTT method, 72 h
HepG2 cells [5] = conditions: read-out: CC50 HepG2; Neutral Red method, 72 h
[6] = tested on: M. tuberculosis strain PT12 (MDR clinical isolate); format: cell-based, Mycobacterium tuberculosis
[7] = tested on: M. tuberculosis H37Rv strain in murine macrophage RAW 264.7 cells; format: cell-based, Mycobacterium tuberculosis; conditions: for Reduction of Mtb load compared to the untreated group: 5 days
[8] = 10 μM, pH 7.4, 5 h, 25 °C
[9] = tested on: Escherichia coli ATCC 25922; format: cell-based; conditions: ATCC 25922, tested at 20 μM, 24 h
[10] = Aqueous solubility (UHPLC-DAD); conditions: 25 °C, 4 h
Vero cells [11] = conditions: read-out: CC50 Vero; Neutral Red method, 72 h
[12] = tested on: M. tuberculosis strain PT20 (MDR clinical isolate); format: cell-based, Mycobacterium tuberculosis
HepG2 cells [13] = conditions: read-out: CC50 HepG2; MTT method, 72 h
[14] = tested on: Klebsiella pneumoniae multidrug-resistant clinical isolate; format: cell-based; conditions: tested at 20 μM, 24 h
[15] = tested on: Staphylococcus aureus ATCC 25923; format: cell-based; conditions: ATCC 25923, tested at 20 μM, 24 h
[16] = tested on: M. tuberculosis strain PT2 (MDR clinical isolate); format: cell-based, Mycobacterium tuberculosis
[17] = rat liver microsomes, 2 μM, NADPH, 37 °C
[18] = 24 h, 10 μM
Description: The assessment of chemical stability at different pH levels provides insights into the quantity or concentration of the test compound that remains unchanged and, consequently, available for absorption. […] Following this incubation period, the test compounds were quantified using HPLC-MS/MS, with alprenolol serving as the analytical control. This experiment was conducted by CEMSA (São Paulo, SP, Brazil).

## CCc1ccc(NCCCOc2cc(C)nc3ccc(Br)cc23)cc1 [8t, N-(3-((6-bromo-2-methylquinolin-4-yl)oxy)propyl)-4-ethylaniline]
[1]; 300 mg/kg gavage
  Ke (elimination rate constant): 0.16 h^–1
  Plasma concentrations for a span of up to 8 h: exceeding 7.49 μM
  Tmax: 1 h
  t1/2 (elimination half-life): 4.3 ± 1.2 h
[1]; 300 mg/kg gavage, noncompartmental analysis
  Cmax: 32.1 ± 3.9 µM
[1]; 300 mg/kg gavage, time 0 to 8 h
  AUC0-t: 127.5 ± 5.7 µM·h
[1]; 0.5 h
  Plasma concentration: 11.10 ± 1.24 µM
[1]; 0.75 h
  Plasma concentration: 15.73 ± 1.61 µM
[1]; 1 h
  Plasma concentration: 32.15 ± 3.94 µM
[1]; 4 h
  Plasma concentration: 13.45 ± 2.01 µM
[1]; 8 h, 300 mg/kg
  Plasma concentration: 9.80 µM and 9.80 ± 2.13 µM
[2]
  MIC A. baumannii: MIC A. baumannii = > 20 μM
[3]
  MIC: 0.05 µM (≈ 0.02 µg/mL)
Vero cells [4]
  CC50: > 20 µM
HepG2 cells [5]
  CC50: > 20 µM
[6]
  MIC PT12: <0.05 µM
[7]
  Kind of effect on intracellular growth of M. tuberculosis H37Rv: bacteriostatic effect
  Log10 CFU/well (Mean ± SD): 3.90 ± 0.30 ^d Log10 CFU/well and 4.10 ± 0.02 ^d Log10 CFU/well
[7]; 1 μM
  Reduction of Mtb load compared to the untreated group: 1.27 log10 CFU
[7]; 5 μM
  Reduction of Mtb load compared to the untreated group: 1.07 log10 CFU
[8]
  PAMPA permeability: PAMPA = 0.2 × 10^−6 cm/s
[9]
  MIC E. coli: MIC E. coli = > 20 μM
[10]; 0.1 M HCl solution
  Solubility pH 1.2: >2,500 μM
[10]; 0.1 M NH4HCO3 solution
  Solubility pH 9.1: 30.22 μM
[10]; PBS
  Solubility pH 7.4: 35.3 μM
Vero cells [11]
  CC50: 11.8 µM
[12]
  MIC PT20: <0.05 µM
HepG2 cells [13]
  CC50: > 20 µM
[14]
  MIC K. pneumoniae: MIC K. pneumoniae = > 20 μM
[15]
  MIC S. aureus: MIC S. aureus = > 20 μM
[16]
  MIC PT2: <0.05 µM
[17]
  Clint (intrinsic clearance): Clint ^f = 58 mL/min/kg
  t1/2 (half-life): t1/2 ^g = 7.0 min
[18]; 0.1 M HCl, 37 °C
  Chemical Stability pH 1.2 (percentage of remaining compound): Chemical Stability ^b pH 1.2 ^c = 100%
[18]; 0.1 M NH4HCO3, 37 °C
  Chemical Stability pH 9.1 (percentage of remaining compound): Chemical Stability ^b pH 9.1 ^e = 6.0%
[18]; PBS, 37 °C
  Chemical Stability pH 7.4 (percentage of remaining compound): Chemical Stability ^b pH 7.4 ^d = 5.3%

Reference: paper PMC11684019, “Unveiling the Antimycobacterial Potential of Novel 4-Alkoxyquinolines: Insights into Selectivity, Mechanism of Action, and In Vivo Exposure” (Journal of Medicinal Chemistry, 2024)
